Measured values taken from article PMC11150675, “Simultaneous determination of multiple components in rat plasma by UPLC-MS/MS for pharmacokinetic studies after oral administration of Pogostemon cablin extract” (Frontiers in Pharmacology, 2024).
Where two headings read alike, the source gives them in different places.

What was measured:
[1] = PK study in rats after single oral administration of Pogostemon cablin (PC) extract, plasma analysed by UPLC-MS/MS; details: for detection in plasma after oral PC extract: no complete PK profile obtained; for shape of plasma concentration-time curve: Figure 2
Experimental: (§1) The 100 μL plasma sample was combined with 20 μL of ME, 20 μL of IS (500 ng/mL), and 2.5 μL of FA, followed by vortexing for 1 min. This mixture underwent extraction with 600 μL ACN through vortexing at room temperature for 3 min. Subsequent to centrifugation at 14,000 rpm for a period of 10 min, the resulting supernatant was moved to another tube and dried under a stream of nitrogen. The dried residue was dissolved in 100 μL ME-ACN (50:50 v/v), followed by vortexing for 5 min, and subsequent centrifugation at 14,000 rpm for 10 min. Finally, 20 μL of the supernatant was used for analysis.
(§2) A concentration of 0.5 g/mL of PC extract was obtained by dissolving in 0.5% CMC-Na aqueous solution. The PC suspension of the 4.0 g/kg dose was given to rats by single oral administration. […] Subsequently, the plasma collected underwent centrifugation at a speed of 7000 rpm for a duration of 10 min. It was then moved to clean tubes and kept at a temperature of −80°C.
(§3) Data in this study was presented as the mean ± standard deviation (SD). The MassHunter Workstation software (version B.09.00, Agilent, United States) was utilized for determining the plasma levels of the 15 analytes. Additionally, PK parameters were analyzed using DAS 3.0 Software (Medical College of Wannan, China).

[2] = rat, in vivo, po, 4 g/kg
Experimental: as §1, §2, §3

[3] = rat plasma, PC extract 4.0 g/kg oral
[4] = rat plasma, PC extract 4.0 g/kg single oral dose, n = 6

| SMILES | AUC ([1]; male, rat, plasma, po, 4 g/kg) [ng·h/mL] | AUC(0-inf) ([1]; male, rat, plasma, po, 4 g/kg) [ng·h/mL] | Cmax ([1]; male, rat, plasma, po, 4 g/kg) [ng/mL] | Tmax ([1]; male, rat, plasma, po, 4 g/kg) [min] | half-life ([1]; male, rat, plasma, po, 4 g/kg) [min] | also measured |
| --- | --- | --- | --- | --- | --- | --- |
| COc1ccc(-c2cc(=O)c3c(O)cc(O[C@@H]4O[C@H](CO)[C@@H](O)[C@H](O)[C@H]4O)cc3o2)cc1O [Diosmetin-7-O-β-D-glucopyranoside, diosmetin-7-O-β-D-glucopyranoside] | – | – | – | – | – | detection in plasma after oral PC extract [1, 3]: only detected in the initial plasma samples |
| O=c1c(O[C@@H]2O[C@H](CO)[C@H](O)[C@H](O)[C@H]2O)c(-c2ccc(O)c(O)c2)oc2cc(O)cc(O)c12 [Hyperoside, hyperoside] | – | – | – | – | – | detection in plasma after oral PC extract [1, 3]: only detected in the initial plasma samples |
| COc1ccc(-c2cc(=O)c3c(O)cc(O)cc3o2)cc1 [Acacetin, acacetin] | – | – | – | – | – | detection in plasma after oral PC extract [1, 3]: only detected in the initial plasma samples |
| O=c1cc(-c2ccc(O)cc2)oc2cc(O)cc(O)c12 [Apigenin, apigenin] | 255 ± 65.5 | 255 ± 65.5 | 64.2 ± 15.8 | 18 ± 12 | 162 ± 36 | shape of plasma concentration-time curve ([1]; rat plasma, PC extract oral): double-peak phenomenon |
| O=c1cc(-c2ccc(O)cc2)oc2cc(O[C@@H]3O[C@H](CO)[C@@H](O)[C@H](O)[C@H]3O)cc(O)c12 [Cosmosiin, cosmosiin] | – | – | – | – | – | T1/2z [2]: 3.7 ± 0.6 h |
| COc1cc(O)c2c(=O)c(OC)c(-c3ccc(OC)c(OC)c3)oc2c1 [Retusin, retusin] | 92.2 ± 33 | 92.2 ± 33 | 33 ± 14.6 | 54 ± 36 | 90 ± 12 | – |
| COc1cc(O)c2c(=O)c(OC)c(-c3ccc(O)c(OC)c3)oc2c1 [Pachypodol, pachypodol] | 243 ± 63.5 | 243 ± 63.5 | 47.8 ± 15.9 | 48 ± 12 | 120 ± 6 | shape of plasma concentration-time curve ([1]; rat plasma, PC extract oral): double-peak phenomenon |
| Cc1cc(O)c(C(=O)CCC(C)C)c(=O)o1 [Pogostone, pogostone] | – | – | – | – | – | concentration maximum (Cmax) [1, 3]: 37204.0 ± 10,901.0 ng/mL; AUC (0-tn) [1, 4]: 258294.0 ± 93,104.7 μg/L*h; AUC (0-∞) [1, 4]: 258320.9 ± 93120.6 µg·h/L; Cmax [1, 4]: 37204.0 ± 10,901.0 μg/L; T1/2z [1, 4]: 0.8 ± 0.5 h; Tmax [1, 4]: 114 ± 78 min; area-under-the-curve (AUC) compared with other constituents ([1]; rat plasma, PC extract oral): significantly exceeded that of the other constituents |
| C[C@@H]1O[C@@H](O[C@@H]2[C@@H](O)[C@H](OCCc3ccc(O)c(O)c3)O[C@H](CO)[C@H]2OC(=O)/C=C/c2ccc(O)c(O)c2)[C@H](O)[C@H](O)[C@H]1O [Verbascoside, verbascoside] | 1700 ± 394 | 1700 ± 394 | 554 ± 159 | 24 ± 18 | 156 ± 12.6 | – |
| C[C@@H]1O[C@@H](O[C@@H]2[C@@H](O)[C@H](OCCc3ccc(O)c(O)c3)O[C@H](COC(=O)/C=C/c3ccc(O)c(O)c3)[C@H]2O)[C@H](O)[C@H](O)[C@H]1O [Isoacteoside, isoacteoside] | 384 ± 93.8 | 384 ± 93.8 | 109 ± 41.5 | 30 ± 18 | 174 ± 18 | – |
| COc1cc(C(=O)O)ccc1O [Vanillic acid, vanillic acid] | 1310 | 1310 | 116 ± 36.8 | 84 ± 84 | 150 ± 6 | – |
| O=c1cc(-c2ccc(O)cc2)oc2c([C@@H]3O[C@H](CO)[C@@H](O)[C@H](O)[C@H]3O)c(O)c([C@@H]3O[C@H](CO)[C@@H](O)[C@H](O)[C@H]3O)c(O)c12 [Vicenin-2, vicenin-2] | – | – | – | – | – | AUC (0-tn) [1, 4]: 968.0 ± 131.9 µg·h/L; AUC (0-∞) [1, 4]: 968.8 ± 132.9 µg·h/L; Cmax [1, 4]: 249.4 ± 50.8 ng/mL; T1/2z [1, 4]: 1.2 ± 0.6 h; Tmax [1, 4]: 18 ± 6 min |
| COc1cc(O)c2c(=O)c(O)c(-c3ccc(OC)c(O)c3)oc2c1 [Ombuin, ombuin] | – | – | – | – | – | AUC (0-tn) [1, 4]: 95.1 ± 28.1 µg·h/L; AUC (0-∞) [1, 4]: 95.4 ± 28.4 µg·h/L; Cmax [1, 4]: 11.2 ± 1.5 ng/mL; T1/2z [1, 4]: 3.8 ± 1.8 h; Tmax [1, 4]: 36 ± 12 min |
| O=c1cc(-c2ccc(O)cc2)oc2c([C@@H]3O[C@H](CO)[C@@H](O)[C@H](O)[C@H]3O)c(O)cc(O)c12 [Vitexin, vitexin] | – | – | – | – | – | detection in plasma after oral PC extract [1, 3]: only detected in the initial plasma samples |
